These results are taken from PMC3703287, “Analgesic effect of a mixed T-type channel inhibitor/CB2 receptor agonist” (Molecular Pain, 2013).

One test concerns the target T1, CaV3.1 (Homo sapiens, UniProt O43497).
T1 construct: gene CACNA1G; α1 subunit
Description: whole-cell patch clamp, […] NMP-181, tsA-201 cells transiently expressing human CaV3.[…]. It is filed as cell-based. In general terms: Patch clamp records ionic current or voltage across a cell membrane.

The target in the next test is T2, CaV3.2 (Homo sapiens, UniProt O95180).
T2 construct: gene CACNA1H; α1 subunit
Description: whole-cell patch clamp, tsA-201 cells transiently expressing human CaV3.[…]. It is filed as cell-based.

For the next test, the target named is T3, human CB2 receptor (Homo sapiens, UniProt P34972).
T3 construct: gene CNR2
Description: [3H]CP55940 radioligand competition, membranes of HEK293 cells expressing human CB2; low-efficacy agonist in GTPγ[…] assay ([…] at […]). It counts as binding.

T1 sequence (O43497 whole entry): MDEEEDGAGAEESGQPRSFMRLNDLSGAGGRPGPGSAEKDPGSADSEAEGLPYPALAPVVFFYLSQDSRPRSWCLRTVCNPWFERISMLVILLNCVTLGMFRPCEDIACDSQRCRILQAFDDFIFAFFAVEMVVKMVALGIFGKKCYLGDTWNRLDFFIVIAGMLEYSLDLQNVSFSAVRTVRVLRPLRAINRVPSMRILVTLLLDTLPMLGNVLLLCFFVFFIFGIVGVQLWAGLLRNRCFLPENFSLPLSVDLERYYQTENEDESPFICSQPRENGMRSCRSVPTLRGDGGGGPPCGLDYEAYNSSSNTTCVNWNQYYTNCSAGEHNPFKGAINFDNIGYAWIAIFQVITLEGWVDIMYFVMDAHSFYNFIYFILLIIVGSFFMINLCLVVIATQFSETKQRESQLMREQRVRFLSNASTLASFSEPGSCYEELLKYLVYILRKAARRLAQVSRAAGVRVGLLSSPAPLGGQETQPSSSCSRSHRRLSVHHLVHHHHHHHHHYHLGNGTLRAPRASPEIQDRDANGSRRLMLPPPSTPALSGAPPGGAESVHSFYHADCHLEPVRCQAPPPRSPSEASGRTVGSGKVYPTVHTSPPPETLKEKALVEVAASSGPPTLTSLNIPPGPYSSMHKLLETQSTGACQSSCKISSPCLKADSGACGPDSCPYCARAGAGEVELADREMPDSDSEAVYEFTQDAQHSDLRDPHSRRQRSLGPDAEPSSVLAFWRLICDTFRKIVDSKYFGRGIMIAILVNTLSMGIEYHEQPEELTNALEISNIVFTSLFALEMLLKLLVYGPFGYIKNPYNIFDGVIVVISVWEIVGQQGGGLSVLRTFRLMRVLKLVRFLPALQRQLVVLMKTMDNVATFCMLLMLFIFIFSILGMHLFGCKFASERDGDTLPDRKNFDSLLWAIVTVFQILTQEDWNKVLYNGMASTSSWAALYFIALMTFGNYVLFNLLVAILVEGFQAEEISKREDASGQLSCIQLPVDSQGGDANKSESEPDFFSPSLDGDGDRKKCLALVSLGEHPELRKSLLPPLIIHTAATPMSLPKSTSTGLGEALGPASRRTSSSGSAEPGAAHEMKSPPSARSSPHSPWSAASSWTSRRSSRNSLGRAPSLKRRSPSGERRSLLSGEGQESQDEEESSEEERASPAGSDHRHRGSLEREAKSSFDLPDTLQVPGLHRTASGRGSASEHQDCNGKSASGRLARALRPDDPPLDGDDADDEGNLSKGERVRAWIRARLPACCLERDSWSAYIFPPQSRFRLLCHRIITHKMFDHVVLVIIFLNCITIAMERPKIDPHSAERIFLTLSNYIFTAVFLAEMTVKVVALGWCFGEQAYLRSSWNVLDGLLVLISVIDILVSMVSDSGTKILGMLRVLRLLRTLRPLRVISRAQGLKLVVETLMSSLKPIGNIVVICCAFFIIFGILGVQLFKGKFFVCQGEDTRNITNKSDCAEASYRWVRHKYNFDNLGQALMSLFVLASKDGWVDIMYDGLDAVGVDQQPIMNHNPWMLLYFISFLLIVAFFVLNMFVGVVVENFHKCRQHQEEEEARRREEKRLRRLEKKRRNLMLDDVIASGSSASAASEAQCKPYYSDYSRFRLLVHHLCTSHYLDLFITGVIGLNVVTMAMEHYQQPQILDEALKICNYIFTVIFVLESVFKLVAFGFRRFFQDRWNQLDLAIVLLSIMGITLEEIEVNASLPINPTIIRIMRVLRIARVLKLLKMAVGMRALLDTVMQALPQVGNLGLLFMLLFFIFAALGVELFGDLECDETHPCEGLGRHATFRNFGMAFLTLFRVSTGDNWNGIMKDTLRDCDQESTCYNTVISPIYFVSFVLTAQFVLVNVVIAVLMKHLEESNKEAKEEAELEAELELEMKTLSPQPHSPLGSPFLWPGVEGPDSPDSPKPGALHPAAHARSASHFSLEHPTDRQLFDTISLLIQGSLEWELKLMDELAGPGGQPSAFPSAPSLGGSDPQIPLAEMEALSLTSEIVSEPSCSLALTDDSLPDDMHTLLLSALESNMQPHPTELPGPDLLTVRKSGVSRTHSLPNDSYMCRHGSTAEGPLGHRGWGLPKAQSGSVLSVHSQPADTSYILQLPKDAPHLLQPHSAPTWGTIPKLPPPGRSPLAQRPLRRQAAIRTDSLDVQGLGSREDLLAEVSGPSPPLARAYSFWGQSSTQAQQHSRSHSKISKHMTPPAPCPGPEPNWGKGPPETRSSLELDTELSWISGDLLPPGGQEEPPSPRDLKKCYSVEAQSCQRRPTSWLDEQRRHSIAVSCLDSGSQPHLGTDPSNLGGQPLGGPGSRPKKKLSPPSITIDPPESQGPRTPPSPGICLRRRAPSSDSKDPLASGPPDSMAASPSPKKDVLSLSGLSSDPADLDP
T2 sequence (O95180 whole entry): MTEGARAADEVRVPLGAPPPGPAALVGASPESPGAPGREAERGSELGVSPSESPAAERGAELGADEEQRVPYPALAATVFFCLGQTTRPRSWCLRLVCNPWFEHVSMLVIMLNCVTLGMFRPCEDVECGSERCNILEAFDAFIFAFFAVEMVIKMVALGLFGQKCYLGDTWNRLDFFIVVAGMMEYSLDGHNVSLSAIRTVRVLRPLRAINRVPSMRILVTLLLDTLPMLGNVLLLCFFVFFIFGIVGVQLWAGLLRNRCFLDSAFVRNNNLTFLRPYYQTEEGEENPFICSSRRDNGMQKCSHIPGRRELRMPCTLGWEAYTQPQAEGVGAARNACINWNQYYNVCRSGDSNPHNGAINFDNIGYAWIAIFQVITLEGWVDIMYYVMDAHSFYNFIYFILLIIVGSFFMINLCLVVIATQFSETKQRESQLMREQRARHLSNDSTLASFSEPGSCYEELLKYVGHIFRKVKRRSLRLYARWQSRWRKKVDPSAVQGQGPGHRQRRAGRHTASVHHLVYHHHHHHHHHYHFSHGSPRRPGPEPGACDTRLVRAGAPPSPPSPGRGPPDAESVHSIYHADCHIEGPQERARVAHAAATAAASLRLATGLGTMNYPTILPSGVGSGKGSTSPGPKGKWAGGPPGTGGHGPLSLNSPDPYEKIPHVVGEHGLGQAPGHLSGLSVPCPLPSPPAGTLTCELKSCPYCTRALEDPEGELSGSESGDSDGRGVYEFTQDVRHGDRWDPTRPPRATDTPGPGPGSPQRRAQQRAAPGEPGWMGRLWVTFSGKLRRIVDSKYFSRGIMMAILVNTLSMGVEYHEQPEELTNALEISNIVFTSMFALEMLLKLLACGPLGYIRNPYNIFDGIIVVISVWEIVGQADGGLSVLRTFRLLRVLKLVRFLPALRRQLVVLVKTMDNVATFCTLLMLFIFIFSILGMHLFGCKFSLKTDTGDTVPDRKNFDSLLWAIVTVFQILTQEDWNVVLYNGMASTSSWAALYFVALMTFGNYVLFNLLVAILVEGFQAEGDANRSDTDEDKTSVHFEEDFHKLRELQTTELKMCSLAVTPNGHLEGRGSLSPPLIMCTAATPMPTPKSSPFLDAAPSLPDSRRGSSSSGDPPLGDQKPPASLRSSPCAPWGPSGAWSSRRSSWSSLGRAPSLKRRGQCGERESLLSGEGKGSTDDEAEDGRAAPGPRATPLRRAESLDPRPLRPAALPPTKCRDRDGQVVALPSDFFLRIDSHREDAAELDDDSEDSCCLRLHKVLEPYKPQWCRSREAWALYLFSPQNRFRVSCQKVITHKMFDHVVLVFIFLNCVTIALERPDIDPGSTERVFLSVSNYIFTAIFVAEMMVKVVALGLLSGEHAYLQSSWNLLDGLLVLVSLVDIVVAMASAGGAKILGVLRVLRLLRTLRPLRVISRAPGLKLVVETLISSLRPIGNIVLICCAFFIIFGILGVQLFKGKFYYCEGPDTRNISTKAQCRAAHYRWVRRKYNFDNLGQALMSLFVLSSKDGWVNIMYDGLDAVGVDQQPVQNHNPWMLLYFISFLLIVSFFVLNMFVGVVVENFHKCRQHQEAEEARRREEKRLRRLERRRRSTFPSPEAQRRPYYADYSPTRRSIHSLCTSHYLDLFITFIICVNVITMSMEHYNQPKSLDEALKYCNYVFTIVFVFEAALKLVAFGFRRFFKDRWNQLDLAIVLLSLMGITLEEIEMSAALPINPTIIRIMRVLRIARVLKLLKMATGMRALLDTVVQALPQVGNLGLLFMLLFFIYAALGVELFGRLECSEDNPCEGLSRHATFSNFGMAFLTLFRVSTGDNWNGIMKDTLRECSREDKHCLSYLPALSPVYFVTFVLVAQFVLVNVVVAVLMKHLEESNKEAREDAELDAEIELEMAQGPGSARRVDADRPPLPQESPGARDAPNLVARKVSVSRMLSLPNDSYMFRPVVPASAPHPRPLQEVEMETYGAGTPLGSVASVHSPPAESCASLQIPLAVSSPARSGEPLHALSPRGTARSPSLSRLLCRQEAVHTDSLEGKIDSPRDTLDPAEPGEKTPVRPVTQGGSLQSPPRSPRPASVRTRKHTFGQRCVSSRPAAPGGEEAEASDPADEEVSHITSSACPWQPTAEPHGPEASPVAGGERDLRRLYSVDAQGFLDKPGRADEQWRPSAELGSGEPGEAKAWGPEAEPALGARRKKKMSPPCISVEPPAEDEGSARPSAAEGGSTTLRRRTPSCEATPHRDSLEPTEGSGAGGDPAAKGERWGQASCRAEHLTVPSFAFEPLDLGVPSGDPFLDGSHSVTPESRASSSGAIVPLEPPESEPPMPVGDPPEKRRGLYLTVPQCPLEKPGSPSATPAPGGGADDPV
T3 sequence (P34972 whole entry): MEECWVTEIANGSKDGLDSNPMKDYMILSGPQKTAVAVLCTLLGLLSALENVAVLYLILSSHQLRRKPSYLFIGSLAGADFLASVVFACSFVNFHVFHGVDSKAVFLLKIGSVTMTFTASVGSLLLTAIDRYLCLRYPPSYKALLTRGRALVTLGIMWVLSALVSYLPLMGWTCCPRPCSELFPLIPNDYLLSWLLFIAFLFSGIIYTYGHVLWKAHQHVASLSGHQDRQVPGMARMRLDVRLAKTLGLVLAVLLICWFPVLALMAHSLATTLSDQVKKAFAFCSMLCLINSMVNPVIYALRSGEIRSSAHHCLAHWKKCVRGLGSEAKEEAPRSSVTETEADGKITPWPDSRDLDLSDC

What is called IC50 is the concentration needed to halve the response being measured. Low readings indicate greater potency, high ones weaker potency. What is called Ki is the dissociation constant of the complex between target and ligand, obtained from inhibition or displacement. As for `CCCCCn1c2ccccc2c2cc(C(=O)OCCN(C)C)ccc21` [NMP-181], the “whole-cell patch clamp, 10 μM NMP-181, tsA-201 cells transiently expressing huma” value on CaV3.1 is recorded as “the degree of inhibition was similar for all three CaV3 isoforms”. For the same compound, the half-inhibitory concentration (IC50) against CaV3.2 is 4600 nM. For the same compound, the Ki on human CB2 receptor amounted to 123 ± 28 nM.
